target: PI3Kα (alpha) (Homo sapiens (Human), UniProt P42336); assay: p110α (alpha) PI3K binding assay (ADP-Glo lipid kinase reaction, Ki by Morrison equation); type: biochemical; details: PI3K alpha 0.2 nM, ATP 40 μM, PIP2:3PS 50 μM, 120 min, room temperature; read-out: PI3Kα-(alpha) ATP (Ki) micromolar
Experimental: PI3K Binding assays are intended for determining the biochemical potency of small molecule PI3K inhibitors. The PI3K lipid kinase reaction is performed in the presence of PIP2:3PS lipid substrate (Promega #V1792) and ATP. Following the termination if the kinase reaction, turnover of ATP to ADP by the phosphorylation of the lipid substrate is detected using the Promega ADP-Glo™ (Promega #V1792) assay. Reactions are carried out using the following conditions:
After 120 minutes of reaction time, the kinase reaction is terminated. Any ATP remaining after the reaction is depleted, leaving only ADP. Then the Kinase Detection Reagent is added to convert ADP to ATP, which is used in a coupled luciferin/luciferase reaction. The luminescent output is measured and is correlated with kinase activity.
All reactions are carried out at room temperature. […] The reaction is started by the addition of 2 μl ATP/MgCl2. The kinase reaction buffer contains 50 mM HEPES, 50 mM NaCl, 3 mM MgCl2, 0.01% BSA, 1% DMSO, and enzyme and substrate concentrations as indicated in the above table. The reaction is stopped by the addition of 10 μL ADP-Glo reagent. Plates are read in a Perkin Elmer Envision system using luminescence mode. 10 point dose response curves are generated for each test compound. Ki values for each compound are determined using the Morrison Equation.

Sequence of PI3Kα (alpha) (P42336 whole entry): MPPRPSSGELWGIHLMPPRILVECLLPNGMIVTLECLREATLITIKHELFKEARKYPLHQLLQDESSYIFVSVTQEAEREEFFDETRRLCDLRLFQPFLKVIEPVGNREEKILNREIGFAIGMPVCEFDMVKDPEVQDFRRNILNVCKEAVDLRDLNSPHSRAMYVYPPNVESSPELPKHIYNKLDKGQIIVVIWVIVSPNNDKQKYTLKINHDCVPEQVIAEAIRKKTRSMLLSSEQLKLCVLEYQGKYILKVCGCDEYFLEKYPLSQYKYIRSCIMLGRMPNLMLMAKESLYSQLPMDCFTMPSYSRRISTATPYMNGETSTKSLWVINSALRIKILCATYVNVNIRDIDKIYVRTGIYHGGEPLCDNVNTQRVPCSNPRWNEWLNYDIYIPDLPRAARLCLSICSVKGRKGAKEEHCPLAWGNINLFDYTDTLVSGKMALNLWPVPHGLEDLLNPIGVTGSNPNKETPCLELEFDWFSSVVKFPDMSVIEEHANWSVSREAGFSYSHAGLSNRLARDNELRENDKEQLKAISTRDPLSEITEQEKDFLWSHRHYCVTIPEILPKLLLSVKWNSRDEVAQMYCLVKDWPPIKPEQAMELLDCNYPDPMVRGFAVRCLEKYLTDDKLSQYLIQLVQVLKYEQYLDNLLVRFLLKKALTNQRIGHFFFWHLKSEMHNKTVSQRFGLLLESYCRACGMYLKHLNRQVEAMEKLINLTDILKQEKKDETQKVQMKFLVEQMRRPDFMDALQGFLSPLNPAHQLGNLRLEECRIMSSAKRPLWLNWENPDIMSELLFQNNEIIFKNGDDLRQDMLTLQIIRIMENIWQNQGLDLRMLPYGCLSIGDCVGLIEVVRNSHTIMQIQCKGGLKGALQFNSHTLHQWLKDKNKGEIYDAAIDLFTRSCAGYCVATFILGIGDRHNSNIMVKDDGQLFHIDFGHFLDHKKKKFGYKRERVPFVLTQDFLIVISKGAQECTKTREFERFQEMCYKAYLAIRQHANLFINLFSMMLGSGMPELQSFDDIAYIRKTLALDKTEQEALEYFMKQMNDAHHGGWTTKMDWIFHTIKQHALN
Sequence of PI3Kα (alpha) (P27986 whole entry partner): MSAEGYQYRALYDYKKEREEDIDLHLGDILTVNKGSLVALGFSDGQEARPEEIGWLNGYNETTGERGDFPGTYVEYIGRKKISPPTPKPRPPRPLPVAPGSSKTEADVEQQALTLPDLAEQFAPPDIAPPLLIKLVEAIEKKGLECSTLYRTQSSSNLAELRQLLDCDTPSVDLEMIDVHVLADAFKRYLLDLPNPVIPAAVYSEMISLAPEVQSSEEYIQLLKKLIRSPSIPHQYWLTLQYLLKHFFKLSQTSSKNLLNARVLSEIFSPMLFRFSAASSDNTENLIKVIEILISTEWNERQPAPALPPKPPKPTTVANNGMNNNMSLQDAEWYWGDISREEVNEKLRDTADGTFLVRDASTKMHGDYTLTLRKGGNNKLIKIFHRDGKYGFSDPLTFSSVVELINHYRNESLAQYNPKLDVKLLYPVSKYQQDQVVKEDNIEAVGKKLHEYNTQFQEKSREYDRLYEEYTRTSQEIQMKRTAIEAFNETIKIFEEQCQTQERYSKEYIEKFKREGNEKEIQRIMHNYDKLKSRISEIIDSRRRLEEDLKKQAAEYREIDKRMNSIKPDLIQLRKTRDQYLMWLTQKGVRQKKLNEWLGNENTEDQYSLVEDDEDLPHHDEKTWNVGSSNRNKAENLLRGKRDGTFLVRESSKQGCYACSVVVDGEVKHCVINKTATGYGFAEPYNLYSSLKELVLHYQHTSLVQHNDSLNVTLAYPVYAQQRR

Structure (SMILES) | Ki
NC(=O)[C@H](Oc1cc2c3c(c1)nc(-c1ccc4oc(N)nc4c1)n3CCCCO2)C1CC1 (single isomer, unassigned) [Example 283] | 0.104 nM
NC(=O)[C@@H](Oc1cc2c3c(c1)nc(-c1ccc4oc(N)nc4c1)n3CCCCO2)C1CC1 (single isomer, unassigned) [Example 284] | < 0.02 nM
NC(=O)[C@H](Oc1cc2c3c(c1)nc(-c1cc(F)c4oc(N)nc4c1)n3CCCCO2)C1CC1 (single isomer, unassigned) [Example 288] | 0.1 nM
NC(=O)[C@@H](Oc1cc2c3c(c1)nc(-c1cc(F)c4oc(N)nc4c1)n3CCCCO2)C1CC1 (single isomer, unassigned) [Example 289] | < 0.02 nM

Source: patent US10435414B2, “Tricyclic PI3K inhibitor compounds and methods of use” (Genentech, Inc., priority 2015, dated 2019)
